# Assays:
# 5×FAD transgenic mice = assay: Water maze test in 5×FAD transgenic mice; assay type: in vivo, mouse; settings: 5×FAD mice
# Description: In the experiment, the animals were divided into 4 groups. Administration was performed on the mice in each group from 8 weeks of age. After 16 weeks of continuous daily administration, water maze and Y maze behavioral tests were performed. After the behavioral tests were completed, the animals were sacrificed, and brain slice electrophysiology and AD pathology within the brain were tested, including the test of Aβ plaques, biomarkers such as GFAP and Iba-1, p-Tau, etc.
# 5×FAD: edaravone group: ten 5×FAD mice were given edaravone ( ? ®) 6 mg/kg via i.p. at a dose of 10.0 mL/kg once daily.
# 5×FAD: composition group: ten 5×FAD mice were given 7.5 mg/kg edaravone and dexborneol concentrated solution for injection ( ? ®) (edaravone:dexborneol=4:1, containing 6 mg/kg edaravone and 1.5 mg/kg dexborneol) at a dose of 10.0 ml/kg once daily.
# Experiment preparation: A constant temperature pool (120 cm in inner diameter and 50 cm in height) of a water maze was filled with clear water. The water temperature was controlled at about 18° C.-22° C. The four apexes of the pool were selected and designated as “S”, “N”, “W” and “E”, respectively. The platform was placed in the “SW” direction and 1-2 cm below the water surface. Titanium dioxide was added to the water to make the water opaque milky white.
# Parameter setting: the test time was set to 1 min, and the residence time of mice on the platform was set to 2 s.
# Training: The first 5 days were for the training phase of the water maze, the mice were placed in the pool in four different orientations every day, and their trajectories before boarding the platform, as well as the travel and time in each quadrant were recorded.
# Testing: Testing was performed on the first day after the training was completed. During the testing, the platform was removed, the testing time was 60 s, the mouse was placed in the NE orientation, and the number of times the mouse crossed the platform and the time in the platform quadrant during the testing were recorded.
# Data were expressed as Mean±SEM. […]
# [1] = system: SH-SY5Y and primary cortical neurons; settings: cited from earlier work
# [2] = system: primary hippocampal neurons; settings: cited from earlier work
# ICV-STZ model rats = settings: cited from earlier work
# [3] = system: APP/PS1 transgenic mouse model; settings: cited from earlier work
# [4] = system: tau P301L transgenic mouse model; settings: tau P301L mice aged 9 to 10 months and 21 months; oral with drinking water 24 mg/kg/day for 3 consecutive months; cited from earlier work
# [5] = edaravone 6 mg/kg or composition 7.5 mg/kg i.p. once daily for 16 weeks
smiles,measurement,setting,value
"CC1=NN(c2ccccc2)C(=O)C1 [edaravone, 3-methyl-1-phenyl-2-pyrazolin-5-one]","number of times the mouse crossed the platform in platform withdrawal test, vs solvent control",5×FAD transgenic mice; [5],prolong the residence time in the target quadrant and the number of times the mouse crossed the platform
same,"residence time in the target quadrant in platform withdrawal test, vs solvent control",5×FAD transgenic mice; [5],prolong the residence time in the target quadrant
same,"escape latency in water maze hidden platform test, vs solvent control",5×FAD transgenic mice; edaravone 6 mg/kg or composition 7.5 mg/kg i.p. once daily for 16 weeks from 8 weeks of age,could significantly shorten the escape latency
same,neurotoxicity of Aβ1-42,[1],capable of reducing the neurotoxicity of Aβ1-42 to SH-SY5Y and primary cortical neurons
same,H2O2- and glutamate-induced death of primary hippocampal neurons,[2],capable of reducing H2O2— and glutamate-induced death of primary hippocampal neurons
same,spatial learning and memory (Morris water maze) and non-spatial long-term memory (step-down passive avoidance),ICV-STZ model rats; intraperitoneal 9 mg/kg/day for 14 consecutive days,can significantly improve the spatial learning and memory
same,cognitive function in water maze test and passive avoidance test,"ICV-STZ model rats; oral 1, 3 and 10 mg/kg/day for 28 consecutive days",can also improve the cognitive function of ICV-STZ rats in water maze test and passive avoidance test
same,deficits in the cognitive function in water maze test,"[3]; APP/PS1 mice, 12.6 mg/kg intraperitoneal twice a week, prophylactic (3 to 9 months) and therapeutic (9 to 12 months)",can improve the deficits in the cognitive function in water maze test
same,cognitive function of aged transgenic mice,"[3]; APP/PS aged mice (14 to 17 months), oral with drinking water 8, 24 and 72 mg/kg/day",significantly improves the cognitive function of aged transgenic mice
same,Aβ plaque deposition within the brain and cognitive function,"[3]; mice aged 3-12 months, oral with drinking water 33.2 mg/kg/day",can also reduce Aβ plaque deposition within the brain and improve the cognitive function of mice
same,cognitive function in water maze test and novel object recognition test,[4],can significantly improve the cognitive function of the animals in water maze test and novel object recognition test
